The text below walks through data of US20250262167A1, “COMPOUNDS, TARGETS AND PATHWAYS FOR MACROPHAGE MODULATION” (Massachusetts Institute of Technology, priority 2020, published 2025).

Where a name gives a salt, the structure may show the parent alone.

Experiment [1] deals with hMDMs differentiated into M2 by IL-4 plus IL-13. The experiment can be described thus: Reprogramming screen and dosage response on M2-like differentiated macrophages.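 Also: human monocyte-derived macrophages held 24 h in 5 ng/mL IL-4 plus IL-13 before 24 h compound exposure, with cell shape measured from images in 384-well plates.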
The test system of experiment [2] is M1-like and M2-like differentiated hMDMs. Description: RNA-seq of differentiated macrophages reprogrammed by compounds. Particulars: compound at EC, 24 hours. The experiment is classed as cell-based, human. On the procedure: FIGS. 4A-4F show reprogramming of differentiated macrophages by selected compounds. […] Controls include two differentiated M1 and M2 macrophages, M2 macrophages treated with IFNγ and M1 macrophages treated with IL-4. Gene expression in each sample was measured by RNA-seq separately. […] FIG. 4D show network of GO enriched terms using BiNGO on top 10% central hubs genes (n=1255) of macrophage activation network. Node color and size represent the FDR values of enriched GO terms. […] Shared (FIG. 4E) and unique pathways (FIG. 4F) are shown. Compound targets and FDA-approval information are indicated. […]
Differentially expressed genes were annotated using online functional enrichment analysis tool DAVID (http://david.ncifcrf.gov/). […] To quantify the levels of RNA transcripts, total RNA was extracted from various cells and reverse transcribed by TaqMan® Reverse Transcription Reagents Kit (ABI Catalog No. N8080234), followed by amplification with Sybr Green Master Mix (Roche Catalog No. 04707516001) with specific primers (Table 4) and detected by Roche LightCycler 480. […]
To determine the central hubs of all stimulation conditions by compounds (refer to FIG. 4) reflecting the core macrophage activation network, transcriptional interactions between genes were first determined by ARACNe based on the perturbed transcriptional profiles of 34 compounds as well as IFNγ and IL4 controls. […]

Another experiment has as its system M0 macrophages (hMDMs). The experiment can be described thus: Dosage response of cell shape change on M0 macrophages. The experiment is classed as cell-based, human. Particulars: M0 macrophages.
The subject of experiment [3] is hMDMs differentiated into M1 by IFNγ plus TNFα. The experiment can be described thus: Reprogramming screen and dosage response on M1-like differentiated macrophages. The conditions noted are these: Homo sapiens, Macrophage, 24 h; M2-activating compounds on M1-like macrophages (IFNγ plus TNFα); EC = concentration reaching Z-score cutoff. The experiment is classed as cell-based, human.
Experimental: Data were summarized from 3 independent experiments.
Human macrophages were seeded into optical 384-well plates. Sixteen hours later, medium in M1 plates were replaced by M1 differentiating medium (complete RPMI with 50 ng/mL IFNγ and 50 ng/mL TNFα) and medium in M2 plates by M2 differentiating medium (complete RPMI with 5 ng/mL IL-4 and 5 ng/mL IL-13). After 24 hrs cell differentiation, M1 plates (M1 macrophages) and M2 plates (M2 macrophages) were treated with M2-activating compounds and M1-activating compounds respectively for 24 hrs. Two independent experiments were performed with or without replacing differentiating medium right before treatment. Cell imaging and analysis were performed as indicated above.
To investigate whether the identified compounds could reprogram or reactivate macrophages after M1- or M2-like differentiation, we rescreened the hits on M1- or M2-activated macrophages. hMDMs were activated into M2-like macrophages by IL-4 plus IL-13 or M1-like macrophages by IFNγ plus TNFα. […] 24 hours later, cell images were taken and cell shapes were quantified.
We also rescreened the hits on differentiated macrophages in the presence of differentiating cytokines: either IL-4 plus IL-13 or IFNγ plus TNFα.

In experiment [4] the test system is human monocyte-derived macrophages (hMDMs). The experiment can be described thus: High throughput phenotypic screen of macrophage activation (cell shape, Z-score).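 Also: phalloidin and DAPI stained hMDMs imaged by high-content microscopy, cell eccentricity compared with DMSO control by T-test, round morphology scored negative, elongated positive.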 It counts as cell-based. The conditions noted are these: known M1-/M2-activating stimuli.
Experimental: The Z-score was calculated by T-test to measure the difference of cell morphology between treatment and control. Stimuli had negative Z-scores when induced cells to round morphology and positive scores when induced cells to elongated morphology. […] Equally mixed human monocytes isolated from fresh blood of 4 healthy donors were cultured in vitro with 50 ng/mL M-CSF for 7 days. hMDMs were trypsinized and plated on 384-well plates (5000 cells/well in 50 μL). Cells were recovered in 10 ng/mL M-CSF for 16 hrs and then treated with compounds for 24 hrs. Cells were washed, fixed and stained with Phalloidin and DAPI. The plates were scanned with a high-content microscope with six-fields per well to quantify the cell number and cell morphology. […] The cell eccentricity was calculated to measure the cell morphology. The Z-score was calculated by T-test to measure the difference in cell morphologies between each compound and DMSO control.
Cells were treated with a library of over 4000 individual compounds or drugs at the final concentration of 20 μM using the CyBi-Well simultaneous pipettor (CyBio). […] After 24 hr incubation, supernatants were removed using the microplate washer (Bioteck) and cells were fixed by adding 50 μL 16% paraformaldehyde (Thermo Scientific) with the dispenser for 20 minutes. Cells were then washed with 50 μL 1×PBS twice and incubated for 20 minutes with NucBlue and AF746 Phalloidin (Invitrogen) to stain nucleus and cytoskeleton. Cells were then washed with 50 μL 1×PBS twice and maintained in PBS for the image acquirement. Plates were read in the Opera Phenix high content screening system (PerkinElmer) to photograph cells using 20× objective in 2 fluorescent channels (Blue and FarRed). A total of 6 different fields in each well and an average of 1,000 cells were imaged per well. CellProfiler was used to identify each cell by overlapping signals from its nucleus and cytoskeleton, and calculate the eccentricity as the parameter to measure the cell morphology. The Z-score was calculated by T-test to measure the difference of cell morphology between each treatment and control. For each row of the 384-well plate, total 4 wells with first and last two columns treated with the same concentration of DMSO were combined as the control for the other 20 treatment wells in that row. In the meantime, classic M1 and M2 stimuli were added to generate the gold-standard Z-score cutoffs with M1 or M2 activation. Classic M1 stimuli include LPS (100 ng/mL), IFNγ (50 ng/mL, Peprotech), TNFα (50 ng/mL, Peprotech), or IFNγ plus TNFα. Classic M2 stimuli include IL-10 (10 ng/mL, Peprotech), IL-4 (10 ng/mL, Peprotech), or IL-13 (5 ng/mL, Peprotech).
For another experiment, the system named is hMDMs. The experiment can be described thus: Flow cytometry of M1 markers (CD80, CD86) and M2 markers (CD206, CD163) in hMDMs. It counts as cell-based, human. Particulars: 24 hrs. On the procedure: FIGS. 7A-7B show morphology and phenotypes of activated macrophages. […] The resulting macrophages were polarized to M1 by IFNγ or M2 by IL4. Then, M1 macrophages were treated with M2-type compound bosutinib ([…]) for 24 hrs, and M2 macrophages were treated with M1-type compound thiostrepton ([…]) for 24 hrs. F-actin was stained and images were acquired by fluorescent microscopy with 60× objective. Cell nuclei are stained with DAPI. Representative data were shown from two independent experiments. […] Shown are the representative staining profiles from three independent experiments. The numbers show mean fluorescent intensity (MFI)+/−standard error of the mean (SEM) for n=3 samples per group.
FIGS. 9A-9C show comparison of the differentially expressed genes induced by selected compounds (FIG. 9A), ligands for novel pathways (FIG. 9B), and controls (IL-4 and IFNγ). […] Shown are the changes of the relative mean fluorescence intensity (MFI) to controls. 0.2 refers to 20% MFI increase.
B6 mice were purchased from the Jackson Laboratory and maintained in the animal facility at the Massachusetts Institute of Technology (MIT). NSG mice were purchased from the Jackson Laboratory and maintained under specific pathogen-free conditions in the animal facilities at MIT. […] The data were analyzed by FlowJo. […]
(In general: A flow cytometer gives signals particle by particle.)

Experiment [5] deals with ImKCs (immortalized line of mouse Kupffer cells). Description: Seahorse ECAR/OCR (glycolysis, OxPhos) in ImKCs. It counts as cell-based. Particulars: ImKCs, S1P 3 mM, 24 hrs. As for the experimental part:
Shown are representative data of three independent experiments. […] Data are presented as the mean±sd (n=4).
FIGS. 21A-21I show DPI stimulates glycolysis through GPR3 and β-arrestin2. FIGS. 21A-21B show DPI-stimulated glycolysis is independent of the NOX activity. […] The mean fluorescence intensity (MFI) of 2-NBDG in cells was measured by flow cytometry and normalized to DMSO controls of wildtype BMDMs. Data are presented as the mean±sd (n=3). […] ImKCs were transfected with siRNA specific for Gpr3 or a scramble siRNA as control. […] Data are presented as the mean±sd (n=4). […] Data are presented as the mean±sd (n=12). […] Abbr2^−/− ImKC were constructed by CRISPR-Cas9-mediated gene editing. […] Data are presented as the mean±sd (n=4). […] ImKCs were transfected with Abbr2-GFP fusion gene and stimulated with DMSO, DPI (50 nM), or S1P (3 mM). The GFP signal was captured with a TIRF microscope at indicated time points. Shown are representative data of GFP signal at 0 min and 10 min, and merged signal from three independent experiments.
Specific parameters for glycolytic capacity and glycolytic reserve were calculated and summarized based on two independent experiments. […] The GFP signal was captured with a TIRF microscope at indicated time points. Shown are representative data of GFP signal at 0 min and 10 min, and the merged signal from three independent experiments.
OCR and ECAR were measured in isolated tissues or cultured ImKCs using the Seahorse XFe Extracellular Flux Analyzer (Agilent). For tissue respiration assays, 1.0 mg adipose tissue was dissected from inguinal WAT depots by using a surgical biopsy instrument (Integra Miltex Standard Biopsy Punches, Thermo Fisher) and placed into XF96 Islet Capture Microplates and pre-incubated with XF assay medium with pH value at 7.4. XF assay medium supplemented with 1 mM sodium pyruvate, 2 mM GlutaMax™-I, and 25 mM glucose. Isolated MDMs or Kupffer cells were subjected to a mitochondrial stress test by adding oligomycin (2 μM) followed by carbonyl cyanide 4-(trifluoromethoxy), phenylhydrazone (FCCP, 5 μM), and antimycin (1 μM). For glucose stress assay and ECAR measurement, XF assay medium was supplemented only with GlutaMax™-I. Tissue or cells were subjected to a glucose stress test by adding highly concentrated glucose (for tissue, 25 mM; for cells, 10 mM), followed by adding oligomycin (5 μM), FCCP (5 μM), and 2-DG (50 mM). Cells were seeded in culture dishes, and the medium was changed after 6 hours with serum-free DMEM. Cells were incubated for 12-16 hours, and the culture medium was then collected for measurement of glucose and lactate concentrations. Glucose levels were determined using a glucose (GO) assay kit (Sigma). Glucose consumption was the difference in glucose concentration when compared with DMEM. Lactate levels were determined using a lactate assay kit (Eton Bioscience).
DPI is an agonist of GPR3 and an inhibitor of […] oxidase (NOX). We first determined the requirement of NOX in DPI-stimulated glycolysis.
To determine the requirement of GPR3, we knocked down GPR3 by siRNA (siGpr3) in ImKCs.
β-arrestin2, encoded by Arrb2, has been reported to bind to GPR3 and is required for GPR3 signaling. To investigate the requirement of 0-arrestin2 in DPI-stimulated glycolysis, we constructed Arrb2^−/− ImKCs using CRISPR-Cas9 mediated gene editing (FIG. 28F).

Take `Nc1ccccc1NC(=O)c1ccc(CNC(=O)OCc2cccnc2)cc1` [MS275]: the EC in experiment [1] (M1-activating compounds on M2-like macrophages (IL-4 plus IL-13), EC = concentration reaching Z-score cutoff) is 0.811 µM; with M0 macrophages (hMDMs) (EC = concentration inducing cell morphology changes to reach the M1 or M2 Z-score cutoff, Michaelis-Menten fit, 3 independent experiments, unit of the source corrected), 1.05 µM. Moreover, the Category entry (in experiment [1] (differentiated macrophages); in the experiment with M0 macrophages (hMDMs)) was “M1 (−4 for M1-activated macrophages)” throughout. Further, in experiment [2], the unique pathway perturbed entry is “perturbed the pathway of chromatin assembly”. Further, in the experiment on M0 macrophages (hMDMs) (Max Z-score from Michaelis-Menten equation, negative = round, positive = elongated), the “Max absolute Z-value” is given as −7.993.

With `C(=N\NC1=NCCN1)/c1c2ccccc2c(/C=N/NC2=NCCN2)c2ccccc12` [Bisantrene dihydrochloride], the unique pathway perturbed result in experiment [2] is listed as “perturbed the pathway of DNA topological change”. In addition, in experiment [3], the EC (M2 Z-score cutoff) was determined as 1.98 µM.

On to IFNγ: classic M1 stimulus, for which the cell shape induced result in experiment [4] is recorded as “round shape”. In the experiment on hMDMs, the “expression of M1 markers CD80 and CD86” value is listed as “up-regulated”; the “expression of M2 markers CD206 and CD163” value is “suppressed”.

Consider `CCCCCCCCCCCCC/C=C/[C@@H](O)[C@@H](N)COP(=O)(O)O` [S1P, sphingosine-1-phosphate], for which the glycolysis entry in experiment [5] is listed as “significant increase”.
